Molecular target: soluble, sperm-specific adenylate cyclase (sAC) (Homo sapiens, UniProt Q96PN6)
Experiment: sAC-Assay (HTRF cAMP detection)
Format: biochemical
Settings: read-out: IC50 (inhibition of the soluble adenylate cyclase)
Text: In a suitable buffer system, the soluble, sperm-specific adenylate cyclase catalyzes the reaction of adenosine triphosphate (ATP) to cyclic adenosine monophosphate (cAMP) and pyrophosphate. Free cAMP that is generated in this way is then used in a competitive detection process, in which the binding of a europium kryptate (Eu[K])-labeled anti-cAMP antibody (anti cAMP-Eu[K]-AK) to a cAMP-molecule-labeled, modified allophycocyanine-1 molecule (cAMP-XL665) is prevented. In the absence of exogenic cAMP, after excitation at 335 nm, it results in a fluorescence resonance energy transfer (FRET) between the anti cAMP-Eu[K]-AK (FRET-donor) and the cAMP-XL665 molecule (FRET-acceptor). This process is quantified at different times (time-resolved) based on the emission of FRET-acceptor XL665 (665 nm and 620 nm). A signal drop (measured as a wave ratio; calculation formula: [(E665 nm/E620 nm)×10000]) can be attributed to the presence of cAMP and thus to the activity of sAC.
First, 1.5 μl of the test substance (in 30% DMSO), only 30% DMSO in the solvent controls, is introduced per recess in a 384-hole test plate (polystyrene; 384, NV). […]
After an additional incubation of 90 minutes at room temperature, the HTRF result is measured either on the Packard Discovery or with the RubiStar HTRF measuring device (Delay: 50 μs; Integration time: 400 μs).

Chain of soluble, sperm-specific adenylate cyclase (sAC) (Q96PN6 whole entry): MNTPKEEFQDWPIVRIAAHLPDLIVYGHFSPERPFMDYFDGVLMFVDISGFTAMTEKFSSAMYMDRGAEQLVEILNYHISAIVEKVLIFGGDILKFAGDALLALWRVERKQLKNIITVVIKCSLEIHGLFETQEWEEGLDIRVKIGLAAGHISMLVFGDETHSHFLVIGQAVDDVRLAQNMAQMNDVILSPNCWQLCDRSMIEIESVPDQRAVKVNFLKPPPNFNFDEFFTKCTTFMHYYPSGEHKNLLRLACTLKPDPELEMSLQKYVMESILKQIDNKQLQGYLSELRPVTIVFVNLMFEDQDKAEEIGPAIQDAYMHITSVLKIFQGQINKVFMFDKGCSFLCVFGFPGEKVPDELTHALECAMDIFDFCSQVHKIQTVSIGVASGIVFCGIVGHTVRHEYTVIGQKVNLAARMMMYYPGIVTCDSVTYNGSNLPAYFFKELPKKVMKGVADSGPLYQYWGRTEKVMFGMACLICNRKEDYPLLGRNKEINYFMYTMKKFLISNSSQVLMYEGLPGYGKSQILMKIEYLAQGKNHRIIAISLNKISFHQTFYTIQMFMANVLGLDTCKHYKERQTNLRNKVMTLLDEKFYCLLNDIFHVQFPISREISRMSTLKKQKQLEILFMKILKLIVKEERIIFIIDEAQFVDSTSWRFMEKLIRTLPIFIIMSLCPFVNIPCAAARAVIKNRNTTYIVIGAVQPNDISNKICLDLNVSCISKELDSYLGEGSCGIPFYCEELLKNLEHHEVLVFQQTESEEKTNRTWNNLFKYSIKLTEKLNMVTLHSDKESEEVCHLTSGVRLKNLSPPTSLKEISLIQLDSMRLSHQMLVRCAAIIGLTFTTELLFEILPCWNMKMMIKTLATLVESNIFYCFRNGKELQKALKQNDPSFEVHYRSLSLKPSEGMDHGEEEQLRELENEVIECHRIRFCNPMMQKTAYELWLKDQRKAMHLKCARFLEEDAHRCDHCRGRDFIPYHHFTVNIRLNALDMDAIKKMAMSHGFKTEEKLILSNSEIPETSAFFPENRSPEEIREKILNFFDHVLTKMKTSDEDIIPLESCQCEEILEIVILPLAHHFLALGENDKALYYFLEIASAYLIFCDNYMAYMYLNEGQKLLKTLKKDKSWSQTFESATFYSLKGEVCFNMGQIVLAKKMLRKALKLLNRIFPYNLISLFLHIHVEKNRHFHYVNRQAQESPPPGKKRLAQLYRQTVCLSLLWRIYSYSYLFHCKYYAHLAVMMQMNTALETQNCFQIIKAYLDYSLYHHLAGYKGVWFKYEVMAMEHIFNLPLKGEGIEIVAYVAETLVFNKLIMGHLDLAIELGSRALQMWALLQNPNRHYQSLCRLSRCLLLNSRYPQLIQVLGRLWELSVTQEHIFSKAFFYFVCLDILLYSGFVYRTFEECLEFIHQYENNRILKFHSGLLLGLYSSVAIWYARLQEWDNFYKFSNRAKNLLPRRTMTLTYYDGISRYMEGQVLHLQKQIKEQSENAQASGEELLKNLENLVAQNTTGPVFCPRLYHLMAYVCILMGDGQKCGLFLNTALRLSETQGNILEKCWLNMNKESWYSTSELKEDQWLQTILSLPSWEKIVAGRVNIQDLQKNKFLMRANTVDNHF

Row | IC50 | Compound
1 | 3000 nM | CC(C)(C)c1ccc(NS(=O)(=O)c2ccc3[nH]c(C(=O)NC4CCOCC4)c(-c4ccccc4)c3c2)cc1
2 | 1600 nM | CC(O)CNC(=O)c1[nH]c2ccc(S(=O)(=O)Nc3ccc(C(C)(C)C)cc3)cc2c1-c1ccccc1 (racemic)

Reference: patent publication US20070259872A1, “Inhibitors of soluble adenylate cyclase” (priority 2006, published 2007)
